Data from patent US12291537B2, “Compounds, compositions and methods” (priority 2022, dated 2025).
Square brackets hold non-standard residues; d marks the D form. Peptide text beside a SMILES is read from it. * marks the point of attachment. Dolaproine = CO[C@@H]([C@@H]1CCCN1)[C@@H](C)C(=O)O; Dil = CC[C@H](C)[C@H](NC)[C@@H](CC(=O)O)OC; X1 = C[C@@H](N*)[C@@H](O)c1ccccc1; NMeV = CN[C@H](C(=O)O)C(C)C

Key:
Format in all cases: cell-based
[1] = tested on: HT-29 (colorectal cancer) cells; test: Cytotoxicity testing of compounds (cell titer-Glo)
Method: (§1) They were then incubated at 37° C., 5% CO2 for overnight. […] After 5 days, 30 μL cell titer-Glo Luminescent buffer was added to each well and the plate was incubated for 20 min at room temperature. Luminescence signal was detected by the Envison microplatereader.

MDA-MB-468 (TNBC) cells = test: Cytotoxicity testing of compounds (cell titer-Glo)
Method: as §1

[2] = tested on: HT-29, MDA-MB-468 and A549 cells; test: Cytotoxicity testing of compounds, text statements over the cell lines; conditions: first round; HT-29 and MDA-MB-468
Method: (§2) HT-29 (colorectal cancer) and MDA-MB-468 (TNBC) cells were harvested and seeded with 3000 cell per well into 96-well cell culture plates respectively. They were then incubated at 37° C., 5% CO2 for overnight. Each compound was diluted 3-fold from 500 nM, and added to each well respectively. After 5 days, 30 μL cell titer-Glo Luminescent buffer was added to each well and the plate was incubated for 20 min at room temperature. Luminescence signal was detected by the Envison microplatereader.
(§3) In a second round of testing, C-2a and C-2b, along with 6 other compounds (C-1a, C-1b, C-3a, C-3b, C-5a, and C-4a) were tested with the same cell lines plus A549, a NSCLC cell line.

A549, a NSCLC cell line = test: Cytotoxicity testing of compounds (cell titer-Glo), second round; conditions: A549, second round (Table 2)
Method: as §2, §3

[3] = as above; conditions: human
Method: as §2, §3

[4] = Cytotoxicity testing of compounds (cell titer-Glo); conditions: human, Min cell viability
Method: as §1

[5] = HT29, first round (Table 1), 5 days
[6] = Homo sapiens, HT-29, HT29, second round (Table 2)
[7] = Homo sapiens, second round (Table 2)
[8] = Homo sapiens, HT-29, 120 h, HT29, first round (Table 1), 5 days
[9] = Homo sapiens, 120 h, first round (Table 1), 5 days

Work on `CC[C@@]1(O)C(=O)OCc2c1cc1n(c2=O)Cc2c-1nc1cc(F)c(C)c3c1c2[C@@H](NC(=O)CO)CC3` [DXD, reference compound] yielded an IC50 [1, 5] of 25.2 nM, a Min cell viability [1, 5] of 4.0 and an IC50 ([1]; HT29, second round (Table 2)) of 105 nM. For the same molecule, the Min cell viability ([1]; HT29, second round (Table 2)) was 11.4, the IC50 (MDA-MB-468 (TNBC) cells; first round (Table 1), 5 days) was 3.2 nM and the Min cell viability (MDA-MB-468 (TNBC) cells; first round (Table 1), 5 days) was 1.2. The IC50 (MDA-MB-468 (TNBC) cells; second round (Table 2)) was 4.2 nM, the Min cell viability (MDA-MB-468 (TNBC) cells; second round (Table 2)) was 4.1 and the “inhibition of cells proliferation” value [2] was “inhibited cells proliferation in a concentration-dependent manner”. For the same molecule, the IC50 (A549, a NSCLC cell line) was 126 nM and the Min cell viability (A549, a NSCLC cell line) was 28.4.
`CC[C@@]1(O)C(=O)OCc2c1cc1n(c2=O)Cc2c-1nc1cc(F)c(C)c3c1c2CC(N)C3` (mixture of isomers) [Compound C-5a] showed an IC50 [1, 6] of 26.6 nM, an IC50 (MDA-MB-468 (TNBC) cells; [7]) of 2.4 nM and an IC50 (A549, a NSCLC cell line; Homo sapiens) of 22 nM. For the same molecule, the viability at 5 days [3] was 19.4%.
Molecule `CC[C@@]1(O)C(=O)OCc2c1cc1n(c2=O)Cc2c-1nc1cc(F)c(C(C)C)c3c1c2[C@@H](N)CC3` [Compound C-3b] has an IC50 (MDA-MB-468 (TNBC) cells; [7]) of 17.6 nM, an IC50 (A549, a NSCLC cell line; Homo sapiens) of 114 nM and a viability at 5 days [3] of 30.6%.
`CCc1c(F)cc2nc3c(c4c2c1CC[C@H]4N)Cn1c-3cc2c(c1=O)COC(=O)[C@]2(O)CC` [Compound C-2a] gave an IC50 [1, 8] of 5.7 nM, an IC50 [1, 6] of 40.1 nM and a Min cell viability ([1]; human, 5 days) of 4.8. The viability at 5 days [4] was 4.6%, the IC50 (MDA-MB-468 (TNBC) cells; [9]) was 1.6 nM and the IC50 (MDA-MB-468 (TNBC) cells; [7]) was 5.6 nM. For the same molecule, the “inhibition of cells proliferation” value [2] was “inhibited cells proliferation in a concentration-dependent manner”, the IC50 (A549, a NSCLC cell line; Homo sapiens) was 18.9 nM and the viability at 5 days [3] was 19.7%.
Molecule `CC[C@@]1(O)C(=O)OCc2c1cc1n(c2=O)Cc2c-1nc1cc(F)c(C)c3c1c2[C@H](Nc1cccc(CN)c1)CC3` [Compound C-4a] has an IC50 (MDA-MB-468 (TNBC) cells; [7]) of 115 nM and a viability at 5 days [3] of 83%.
In the case of `CC[C@H](C)[C@@H]([C@@H](CC(=O)N1CCC[C@H]1[C@H](OC)[C@@H](C)C(=O)N[C@H](C)[C@@H](O)c1ccccc1)OC)N(C)C(=O)[C@@H](NC(=O)[C@@H](NC)C(C)C)C(C)C` [MMAE, reference compound] (H-[NMeV]V[Dil][Dolaproine]-X1), the IC50 [1, 5] is reported as ~0.5 nM, the Min cell viability [1, 5] is reported as 21.3 and the IC50 ([1]; HT29, second round (Table 2)) is reported as 1.1 nM. It also gave a Min cell viability ([1]; HT29, second round (Table 2)) of 35.5, an IC50 (MDA-MB-468 (TNBC) cells; first round (Table 1), 5 days) of 0.1 nM and a Min cell viability (MDA-MB-468 (TNBC) cells; first round (Table 1), 5 days) of 4.6. The IC50 (MDA-MB-468 (TNBC) cells; second round (Table 2)) was 0.3 nM, the Min cell viability (MDA-MB-468 (TNBC) cells; second round (Table 2)) was 6.3 and the “inhibition of cells proliferation” value [2] was “inhibited cells proliferation in a concentration-dependent manner”. It also gave an IC50 (A549, a NSCLC cell line) of 2 nM.
`CC[C@@]1(O)C(=O)OCc2c1cc1n(c2=O)Cc2c-1nc1cc(F)c(C)c3c1c2CC[C@@H]3N` [Compound C-1a] gave an IC50 [1, 6] of 21.1 nM, an IC50 (MDA-MB-468 (TNBC) cells; [7]) of 3.6 nM and an IC50 (A549, a NSCLC cell line; Homo sapiens) of 16.6 nM. The viability at 5 days [3] was 20.3%.
`CC[C@@]1(O)C(=O)OCc2c1cc1n(c2=O)Cc2c-1nc1cc(F)c(C(C)C)c3c1c2[C@H](N)CC3` [Compound C-3a] showed an IC50 [1, 6] of 76.6 nM, an IC50 (MDA-MB-468 (TNBC) cells; [7]) of 8.8 nM and an IC50 (A549, a NSCLC cell line; Homo sapiens) of 36.6 nM. For the same molecule, the viability at 5 days [3] was 23.8%.
In the case of `CC[C@@]1(O)C(=O)OCc2c1cc1n(c2=O)Cc2c-1nc1cc(F)c(C)c3c1c2CC[C@H]3N` [Compound C-1b], the IC50 [1, 6] is reported as 18.5 nM, the IC50 (MDA-MB-468 (TNBC) cells; [7]) is reported as 3.1 nM and the IC50 (A549, a NSCLC cell line; Homo sapiens) is reported as 13.7 nM. It also gave a viability at 5 days [3] of 14.5%.
In the case of `CCc1c(F)cc2nc3c(c4c2c1CC[C@@H]4N)Cn1c-3cc2c(c1=O)COC(=O)[C@]2(O)CC` [Compound C-2b], the IC50 [1, 8] is reported as 5.6 nM, the IC50 [1, 6] is reported as ~52.7 nM and the Min cell viability ([1]; human, 5 days) is reported as 3.7. It also gave a viability at 5 days [4] of 1.9%, an IC50 (MDA-MB-468 (TNBC) cells; [9]) of 1 nM and an IC50 (MDA-MB-468 (TNBC) cells; [7]) of 5.2 nM. For the same molecule, the “inhibition of cells proliferation” value [2] was “inhibited cells proliferation in a concentration-dependent manner”, the IC50 (A549, a NSCLC cell line; Homo sapiens) was 24.2 nM and the viability at 5 days [3] was 23.6%.
